In patent US20040224878A1, “Fertilization of aged oocytes” (priority 2000, published 2004):

Key:
[1] = system: mouse cumulus-oocyte complex (COC); conditions: addition to the culture medium of mouse COC; cited from earlier work
[2] = system: aged metaphase 11 oocytes; assay: Cytogenetic analysis (chromosome count, hyperploidy) of cultured oocytes; type: cell-based, CBA/Ca mouse; conditions: 10 μM FF-MAS given alone or in combination with Hx, 22 hours culture, FIG. 2
Experimental: The CBA/Ca mouse provides a model system for studies on the maternal age effect of oocytes (7). This model is characterised by its relatively limited pool of follicles with low number of aged oocytes in the sexually mature adult female, similar to the human. All the following studies were carried out in the CBA/Ca mice. Animals were kept under controlled lighting and temperature. Oocytes from young (5-6 weeks old) and aged (35-38 week old) CBA/Ca mice in the diestrus stage of the cycle were investigated. Oocytes were isolated in Hx-medium (see below) under a stereo microscope by manual rupture of the follicles using a pair of 27 gauge needles. Spherical, naked oocytes (NO) displaying an intact germinal vesicle (GV) were placed in a-minimum essential medium (x-MEM without ribonucleosides, Gibco BRL, Cat. No. 22561) supplemented with 3 mM hypoxanthine (Sigma Cat. No. H-9377), 8 mg/ml Human Serum Albumin (HSA, State Serum Institute, Denmark), 0.23 mM pyruvate (Sigma, Cat. No. S-8636), 2 mM glutamine (Flow Cat. No. 16-801), 100 IU/ml penicillin and 100 μg/ml streptomycin (Flow, Cat No. 16-700). This medium was designated Hx-medium. […] The number of chromosomes was counted in each oocyte. […]

oocytes = conditions: mouse; cited from earlier work
aged oocytes = assay: Cell cycle progression (GV, GVBD, PB) of young and aged oocytes after 22 h culture; type: cell-based, CBA/Ca mouse; conditions: 10 μM FF-MAS in Hx-medium, aged (35-38 week old) vs young (5-6 weeks old) oocytes, FIG. 1
Experimental: The CBA/Ca mouse provides a model system for studies on the maternal age effect of oocytes (7). This model is characterised by its relatively limited pool of follicles with low number of aged oocytes in the sexually mature adult female, similar to the human. All the following studies were carried out in the CBA/Ca mice. Animals were kept under controlled lighting and temperature.
Oocytes from young (5-6 weeks old) and aged (35-38 week old) CBA/Ca mice in the diestrus stage of the cycle were investigated. Oocytes were isolated in Hx-medium (see below) under a stereo microscope by manual rupture of the follicles using a pair of 27 gauge needles. […]
(a) By the end of the culture period cell cycle progression was analysed by counting the number of oocytes with germinal vesicle (GV) or germinal vesicle breakdown (GVB) and those with polar body (PB) by using a stereo microscope or an inverted microscope with differential interference contrast equipment. The percentage of oocytes with GV, GVBD and PB per total number of oocytes, respectively, was calculated in the 4 treatment groups of young and aged oocytes, respectively.

human oocytes = conditions: concentrations around those observed in vivo, culture medium of human oocytes during IVF; cited from earlier work

Cl.Cl.Clc1ccccc1CNCC1CCC(CNCc2ccccc2Cl)CC1 (centres unmarked) [AY9944]
accumulation of FF-MAS [1]: has the capacity to induce accumulation of FF-MAS

CC(C)=CCC[C@@H](C)[C@H]1CC=C2C3=C(CC[C@@]21C)[C@@]1(C)CC[C@H](O)C(C)(C)[C@@H]1CC3 [FF-MAS, 4,4-dimethyl-5α-cholesta-8,14,24-triene-31-ol]
numerical aberration rate, e.g. hyperploidy [2]: reduces numerical aberration rate | nuclear (meiotic) and cytoplasmic maturation (oocytes): induces nuclear (meiotic) and cytoplasmic maturation | maturation to metaphase 11 (cell cycle progression) (aged oocytes): more successful to mature to metaphase 11 than young oocytes

EGF: growth factor enhancing endogenous production of MAS in the cumulus enclosed oocyte (NSDSECPLSHDGYCLHDGVCMYIEALDKYACNCVVGYIGERCQYRDLKWWELR; UniProt P01133 971-1023, looked up)
implantation rates of the retrieved oocytes (human oocytes): significant improved implantation rates
